# Data as given in the supplement of paper PMC10307832.
# What was measured:
# Experiment in all cases: relative viability (nuclei count vs DMSO), 5 days (fraction); higher = more cells survive
# Cediranib + Dasatinib = compound: COc1cc2c(Oc3ccc4[nH]c(C)cc4c3F)ncnc2cc1OCCCN1CCCC1 [Cediranib] + Cc1nc(Nc2ncc(C(=O)Nc3c(C)cccc3Cl)s2)cc(N2CCN(CCO)CC2)n1 [Dasatinib] (partner 0.075 µM)
# Summary of the method: (§1)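 Nuclei were stained with Hoechst during a one-step fixation (final 0.05% Triton X-100, 1% formaldehyde, 1 ug/ml Hoechst) carried out 5 days after dosing, then counted on 4× images. The cells, lung cancer lines in 1536-well plates, had been dosed by pin tool the day after seeding with one drug alone or a fixed anchor-drug dose plus five library-drug doses (not always all listed) in √10 steps. Relative viability is the nuclei count in treated wells divided by that in vehicle wells, and each value is the median of duplicate plates.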
# Cediranib + Vorinostat = compound: COc1cc2c(Oc3ccc4[nH]c(C)cc4c3F)ncnc2cc1OCCCN1CCCC1 [Cediranib] + O=C(CCCCCCC(=O)Nc1ccccc1)NO [Vorinostat] (partner 1 µM)
# Summary of the method: as §1
# Decitabine + Luminespib = compound: Nc1ncn([C@H]2C[C@H](O)[C@@H](CO)O2)c(=O)n1 [Decitabine] + CCNC(=O)c1noc(-c2cc(C(C)C)c(O)cc2O)c1-c1ccc(CN2CCOCC2)cc1 [Luminespib] (partner 0.01 µM)
# Summary of the method: as §1
# Decitabine + Pemetrexed = compound: Nc1ncn([C@H]2C[C@H](O)[C@@H](CO)O2)c(=O)n1 [Decitabine] + Nc1nc2[nH]cc(CCc3ccc(C(=O)N[C@@H](CCC(=O)O)C(=O)O)cc3)c2c(=O)[nH]1 [Pemetrexed] (partner 0.2 µM)
# Summary of the method: as §1
Cell Line,relative viability (Cediranib + Dasatinib; first compound 0.04 µM),relative viability (Cediranib + Dasatinib; first compound 0.1265 µM),relative viability (Cediranib + Dasatinib; first compound 0.4 µM),relative viability (Cediranib + Dasatinib; first compound 1.265 µM),relative viability (Cediranib + Dasatinib; first compound 4 µM),relative viability (Cediranib + Vorinostat; first compound 0.04 µM),relative viability (Cediranib + Vorinostat; first compound 0.1265 µM),relative viability (Cediranib + Vorinostat; first compound 0.4 µM),relative viability (Cediranib + Vorinostat; first compound 1.265 µM),relative viability (Cediranib + Vorinostat; first compound 4 µM),relative viability (Decitabine + Luminespib; first compound 0.04 µM),relative viability (Decitabine + Luminespib; first compound 0.1265 µM),relative viability (Decitabine + Luminespib; first compound 0.4 µM),relative viability (Decitabine + Luminespib; first compound 1.265 µM),relative viability (Decitabine + Luminespib; first compound 4 µM),relative viability (Decitabine + Pemetrexed; first compound 0.04 µM),relative viability (Decitabine + Pemetrexed; first compound 0.1265 µM),relative viability (Decitabine + Pemetrexed; first compound 0.4 µM),relative viability (Decitabine + Pemetrexed; first compound 1.265 µM),relative viability (Decitabine + Pemetrexed; first compound 4 µM)
NCI-H2342,0.334,0.392,0.288,0.295,0.327,0.712,0.791,0.733,0.613,0.758,0.765,0.737,0.804,0.537,0.434,0.734,0.733,0.731,0.642,0.663
NCI-H2347,0.262,0.288,0.268,0.277,0.381,0.693,0.621,0.538,0.577,0.512,0.472,0.393,0.515,0.453,0.36,0.401,0.396,0.382,0.366,0.386
NCI-H2405,0.2,0.583,0.227,0.196,0.218,0.995,0.928,0.983,1.03,1.21,0.798,0.654,0.59,0.431,0.445,0.851,0.998,0.787,0.632,0.524
NCI-H3122,0.901,0.694,0.731,0.542,0.897,1.02,–,0.985,1.13,1.07,0.0814,0.0807,0.0785,0.0889,0.0802,0.182,0.179,0.121,0.159,0.185
PC-3 [JPC-3],1.09,1.1,0.966,1.04,0.909,0.771,–,0.765,0.855,0.797,0.43,0.708,0.454,0.408,0.488,–,0.845,0.439,0.528,0.586
PC-14,0.235,0.27,0.243,0.224,0.0965,0.831,0.755,0.744,0.801,0.451,0.145,0.227,0.173,0.168,0.131,0.123,0.0812,0.0659,0.0902,0.0856
